Our source for the Activity values is ChEMBL document CHEMBL1139346, “Discovery of innovative small molecule therapeutics” (2009).

Assay [1] relates to Rattus norvegicus. The experiment in a line: Neuroprotective effect in rat transient mCAO focal ischemia model assessed as reduction of infarct volume at 30 mg/kg relative to control. The class given is functional. Set-up: scale not given: the % may be the effect or the level left.
For assay [2], the system named is Rattus norvegicus. Briefly: Neuroprotective effect in rat transient mCAO focal ischemia model assessed as reduction of infarct volume at 10 mg/kg relative to control. The class given is functional. Details: scale not given: the % may be the effect or the level left.

In the case of `CO[C@@H]1C/C(C)=C\[C@H]2CC[C@@H]([C@@H](C)C[C@@H](C)C(=O)[C@H](OC)[C@H](O)/C(C)=C/[C@@H](C)C(=O)C[C@@H]([C@H](C)C[C@@H]3CC[C@@H](O)[C@H](OC)C3)OC(=O)[C@@H]3CCCCN3C(=O)C(=O)[C@]3(O)O[C@@H](CC[C@H]3C)C1)N(c1ccccc1)O2` [ILS-920], the Activity in the assay with Rattus norvegicus [1] stood at 36%; in the assay with Rattus norvegicus [2], 23%.
